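Exposure lasted 48 hours, with cells grown in 96-well plates and compounds tested at five concentrations. TGI: total growth inhibition.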
What was measured:
Experiment in all cases: NCI anticancer screen, dose series, 48 h
NCI-H226 lung = tested on: NCI-H226 lung
A498 renal = tested on: A498 renal
ACHN renal = tested on: ACHN renal
DMS 114 small cell lung = tested on: DMS 114 small cell lung
LXFL 529 NSCLC = tested on: LXFL 529 NSCLC
OVCAR-5 ovarian = tested on: OVCAR-5 ovarian
RXF 393 renal = tested on: RXF 393 renal
HCT-116 colon = tested on: HCT-116 colon
OVCAR-8 ovarian = tested on: OVCAR-8 ovarian
SW-620 colon = tested on: SW-620 colon
EKVX NSCLC = tested on: EKVX NSCLC
NCI-H23 lung = tested on: NCI-H23 lung
HOP-62 NSCLC = tested on: HOP-62 NSCLC
SK-MEL-2 melanoma = tested on: SK-MEL-2 melanoma
DLD-1 colon = tested on: DLD-1 colon
A549 NSCLC = tested on: A549 NSCLC
MALME-3M melanoma = tested on: MALME-3M melanoma
HOP-92 NSCLC = tested on: HOP-92 NSCLC
SK-MEL-28 melanoma = tested on: SK-MEL-28 melanoma
SK-MEL-5 melanoma = tested on: SK-MEL-5 melanoma
UACC-62 melanoma = tested on: UACC-62 melanoma
M19-MEL melanoma = tested on: M19-MEL melanoma
DMS 273 small cell lung = tested on: DMS 273 small cell lung
RPMI-8226 leukemia = tested on: RPMI-8226 leukemia
HL-60(TB) leukemia = tested on: HL-60(TB) leukemia
HOP-18 NSCLC = tested on: HOP-18 NSCLC
HCC-2998 colon = tested on: HCC-2998 colon
COLO 205 colon = tested on: COLO 205 colon
UACC-257 melanoma = tested on: UACC-257 melanoma
OVCAR-4 ovarian = tested on: OVCAR-4 ovarian
KM12 colon = tested on: KM12 colon
UO-31 renal = tested on: UO-31 renal
KM20L2 colon = tested on: KM20L2 colon
LOX IMVI melanoma = tested on: LOX IMVI melanoma
HCT-15 colon = tested on: HCT-15 colon
OVCAR-3 ovarian = tested on: OVCAR-3 ovarian
HT29 colon = tested on: HT29 colon
NCI-H522 lung = tested on: NCI-H522 lung
K-562 leukemia = tested on: K-562 leukemia
786-0 renal = tested on: 786-0 renal
U251 CNS = tested on: U251 CNS
SF-295 CNS = tested on: SF-295 CNS
SNB-75 CNS = tested on: SNB-75 CNS
TK-10 renal = tested on: TK-10 renal
SNB-19 CNS = tested on: SNB-19 CNS
CCRF-CEM leukemia = tested on: CCRF-CEM leukemia
CAKI-1 renal = tested on: CAKI-1 renal
SF-268 CNS = tested on: SF-268 CNS
SNB-78 CNS = tested on: SNB-78 CNS
MOLT-4 leukemia = tested on: MOLT-4 leukemia
IGROV1 ovarian = tested on: IGROV1 ovarian
SK-OV-3 ovarian = tested on: SK-OV-3 ovarian
M14 melanoma = tested on: M14 melanoma
NCI-H460 lung = tested on: NCI-H460 lung
SN12C renal = tested on: SN12C renal

SMILES: CCN(CC)c1c(C(=O)/C=C/c2ccc(F)cc2)c(-c2ccccc2)nn(C)c1=O
- TGI (NCI-H226 lung): 34 µM
- TGI (A498 renal): 21.1 µM
- TGI (ACHN renal): 20.6 µM
- TGI (DMS 114 small cell lung): 19.2 µM
- TGI (LXFL 529 NSCLC): 19.9 µM
- TGI (OVCAR-5 ovarian): 41.9 µM
- TGI (RXF 393 renal): 11 µM
- TGI (HCT-116 colon): 14.5 µM
- TGI (OVCAR-8 ovarian): 19.1 µM
- TGI (SW-620 colon): 34.8 µM
- TGI (EKVX NSCLC): 55.3 µM
- TGI (NCI-H23 lung): 16.5 µM
- TGI (HOP-62 NSCLC): 28.6 µM
- TGI (SK-MEL-2 melanoma): 16.7 µM
- TGI (DLD-1 colon): 26.7 µM
- TGI (A549 NSCLC): 43.2 µM
- TGI (MALME-3M melanoma): 27.8 µM
- TGI (HOP-92 NSCLC): 19.4 µM
- TGI (SK-MEL-28 melanoma): 31.5 µM
- TGI (SK-MEL-5 melanoma): 21.1 µM
- TGI (UACC-62 melanoma): 33.1 µM
- TGI (M19-MEL melanoma): 25.1 µM
- TGI (DMS 273 small cell lung): 21 µM
- TGI (RPMI-8226 leukemia): 9.89 µM
- TGI (HL-60(TB) leukemia): 15.7 µM
- TGI (HOP-18 NSCLC): 58.4 µM
- TGI (HCC-2998 colon): 10.5 µM
- TGI (COLO 205 colon): 14.8 µM
- TGI (UACC-257 melanoma): 21.2 µM
- TGI (OVCAR-4 ovarian): 20.5 µM
- TGI (KM12 colon): 18.9 µM
- TGI (UO-31 renal): 24.4 µM
- TGI (KM20L2 colon): 44.4 µM
- TGI (LOX IMVI melanoma): 23.6 µM
- TGI (HCT-15 colon): 25.7 µM
- TGI (OVCAR-3 ovarian): 21.2 µM
- TGI (HT29 colon): 18.6 µM
- TGI (NCI-H522 lung): 13.9 µM
- TGI (K-562 leukemia): 34.1 µM
- TGI (786-0 renal): 23.2 µM
- TGI (U251 CNS): 19.1 µM
- TGI (SF-295 CNS): 34 µM
- TGI (SNB-75 CNS): 22.5 µM
- TGI (TK-10 renal): 38.5 µM
- TGI (SNB-19 CNS): 58.4 µM
- TGI (CCRF-CEM leukemia): 6.82 µM
- TGI (CAKI-1 renal): 69.6 µM
- TGI (SF-268 CNS): 35.8 µM
- TGI (SNB-78 CNS): 44.9 µM
- TGI (MOLT-4 leukemia): 5.91 µM
- TGI (IGROV1 ovarian): 21.9 µM
- TGI (SK-OV-3 ovarian): 60.8 µM
- TGI (M14 melanoma): 25.6 µM
- TGI (NCI-H460 lung): 18.8 µM
- TGI (SN12C renal): 21.8 µM

SMILES: CC(C)C(NCc1c2ccccc2[n+]([O-])c2ccccc12)C(=O)O (stereo not drawn)
- TGI (NCI-H226 lung): > 100 µM
- TGI (A498 renal): > 100 µM
- TGI (ACHN renal): > 100 µM
- TGI (DMS 114 small cell lung): > 100 µM
- TGI (LXFL 529 NSCLC): > 100 µM
- TGI (OVCAR-5 ovarian): > 100 µM
- TGI (HCT-116 colon): > 100 µM
- TGI (OVCAR-8 ovarian): > 100 µM
- TGI (SW-620 colon): > 100 µM
- TGI (EKVX NSCLC): > 100 µM
- TGI (NCI-H23 lung): > 100 µM
- TGI (HOP-62 NSCLC): > 100 µM
- TGI (SK-MEL-2 melanoma): > 100 µM
- TGI (DLD-1 colon): > 100 µM
- TGI (A549 NSCLC): > 100 µM
- TGI (MALME-3M melanoma): > 100 µM
- TGI (HOP-92 NSCLC): 53.2 µM
- TGI (SK-MEL-28 melanoma): > 100 µM
- TGI (SK-MEL-5 melanoma): > 100 µM
- TGI (UACC-62 melanoma): > 100 µM
- TGI (DMS 273 small cell lung): > 100 µM
- TGI (RPMI-8226 leukemia): 86.5 µM
- TGI (HL-60(TB) leukemia): 76 µM
- TGI (HOP-18 NSCLC): > 100 µM
- TGI (HCC-2998 colon): > 100 µM
- TGI (COLO 205 colon): > 100 µM
- TGI (UACC-257 melanoma): > 100 µM
- TGI (OVCAR-4 ovarian): > 100 µM
- TGI (KM12 colon): > 100 µM
- TGI (UO-31 renal): > 100 µM
- TGI (KM20L2 colon): > 100 µM
- TGI (LOX IMVI melanoma): > 100 µM
- TGI (HCT-15 colon): > 100 µM
- TGI (OVCAR-3 ovarian): > 100 µM
- TGI (HT29 colon): > 100 µM
- TGI (NCI-H522 lung): > 100 µM
- TGI (K-562 leukemia): > 100 µM
- TGI (786-0 renal): > 100 µM
- TGI (U251 CNS): > 100 µM
- TGI (SF-295 CNS): > 100 µM
- TGI (SNB-75 CNS): > 100 µM
- TGI (TK-10 renal): > 100 µM
- TGI (SNB-19 CNS): > 100 µM
- TGI (CCRF-CEM leukemia): > 100 µM
- TGI (CAKI-1 renal): > 100 µM
- TGI (SF-268 CNS): > 100 µM
- TGI (SNB-78 CNS): > 100 µM
- TGI (MOLT-4 leukemia): > 100 µM
- TGI (IGROV1 ovarian): > 100 µM
- TGI (SK-OV-3 ovarian): > 100 µM
- TGI (M14 melanoma): > 100 µM
- TGI (NCI-H460 lung): > 100 µM
- TGI (SN12C renal): > 100 µM

Reference: PubChem BioAssay (NCI)
